The target in one series is T1, CYP2B6 (Homo sapiens, UniProt P20813).
T1 construct: purchased BD Gentest, Becton-Dickinson (Supersomes); host or cells: insect cells
T1 sequence (P20813 1-491): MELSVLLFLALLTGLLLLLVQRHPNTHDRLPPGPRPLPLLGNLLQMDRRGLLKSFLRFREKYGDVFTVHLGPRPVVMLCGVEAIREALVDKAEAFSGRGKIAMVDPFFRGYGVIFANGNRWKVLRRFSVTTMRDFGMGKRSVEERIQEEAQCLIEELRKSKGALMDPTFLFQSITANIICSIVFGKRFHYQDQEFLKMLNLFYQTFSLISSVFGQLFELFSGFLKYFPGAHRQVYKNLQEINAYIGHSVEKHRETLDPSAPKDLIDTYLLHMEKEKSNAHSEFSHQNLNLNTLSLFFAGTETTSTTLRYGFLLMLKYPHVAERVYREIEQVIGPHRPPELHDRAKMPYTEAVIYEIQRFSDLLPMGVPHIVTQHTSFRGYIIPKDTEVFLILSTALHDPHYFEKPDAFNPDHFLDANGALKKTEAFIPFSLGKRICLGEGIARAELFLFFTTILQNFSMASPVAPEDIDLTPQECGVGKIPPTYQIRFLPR
The experiment in a line: Cytochrome P450 inhibition, CYP2B6. The conditions noted are these: read-out: IC50 2B6. It counts as in vitro ADME. The source says:
(§1) K. Assay for Cytochrome P450 Inhibition
(§2) Cytochrome P450 enzymes are implicated in the phase I metabolism of drugs. The majority of drug-drug interactions are metabolism-based and, moreover, these interactions typically involve inhibition of cytochrome P450s. Six CYP450 enzymes (CYP1A2, CYP2C8, CYP2C9, CYP2C19, CYP2D6 and CYP3A4) appear to be commonly responsible for the metabolism of most drugs and the associated drug-drug interactions. Assays to determine the binding of compounds of the invention to the various metabolically important isoforms of cytochrome P450 metabolizing enzymes are commercially available, for example NoAb BioDiscoveries (Mississaugua, ON, Canada) and Absorption Systems (Exton, Pa., USA). As well, a number of appropriate methods have been described or reviewed in the literature. (White, R. E. Ann. Rev. Pharmacol. Toxicol. 2000, 40, 133-157; Li, A. P. Drug. Disc. Today 2001, 6, 357-366; Turpeinen, M.; Korhonen, L. E. Tolonen, A.; et al. Eur. J. Pharm. Sci, 2006, 29, 130-138.)
(§3) The key aspects of the experimental method were as follows: • 1. […] Assays monitored, via fluorescence detection, the formation of a fluorescent metabolite following incubation of the microsomes with a specific CYP substrate. • 3. Compounds of the present invention were tested in duplicate samples at eight test concentrations using 3-fold serial dilutions (concentration range of 0.0457 to 100 μM). • 4. For each CYP-450 enzyme, a specific inhibitor was tested in duplicate at eight concentrations as a positive control. • 5. The concentration of the inhibitor or test compound that inhibited metabolite formation by 50% (IC50) was calculated by non-linear regression analysis of the % inhibition vs. log concentration (M) curve.

Another series has as its target T2, CYP2E1 (Homo sapiens, UniProt P05181).
T2 construct: purchased BD Gentest, Becton-Dickinson (Supersomes); host or cells: insect cells
The experiment in a line: Cytochrome P450 inhibition, CYP2E1. It counts as in vitro ADME. The conditions noted are these: read-out: IC50 2E1.
Text: as §1, §2, §3

A further series deals with T3, CYP2C8 (Homo sapiens, UniProt P10632).
T3 construct: purchased BD Gentest, Becton-Dickinson (Supersomes); host or cells: insect cells
T3 sequence (P10632 1-490): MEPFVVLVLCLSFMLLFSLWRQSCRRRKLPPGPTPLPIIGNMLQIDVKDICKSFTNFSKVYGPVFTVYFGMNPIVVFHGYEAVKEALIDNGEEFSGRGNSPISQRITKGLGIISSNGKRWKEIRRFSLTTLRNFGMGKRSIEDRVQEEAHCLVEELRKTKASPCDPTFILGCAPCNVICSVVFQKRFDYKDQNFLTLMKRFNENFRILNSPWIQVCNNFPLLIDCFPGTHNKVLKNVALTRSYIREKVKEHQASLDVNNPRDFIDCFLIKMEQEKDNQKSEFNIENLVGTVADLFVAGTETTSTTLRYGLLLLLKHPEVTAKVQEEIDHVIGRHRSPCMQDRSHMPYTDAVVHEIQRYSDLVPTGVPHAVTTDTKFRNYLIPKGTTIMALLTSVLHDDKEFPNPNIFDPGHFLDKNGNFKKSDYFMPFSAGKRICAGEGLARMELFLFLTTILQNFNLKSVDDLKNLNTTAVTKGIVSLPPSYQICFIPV
Nature of the series: Cytochrome P450 inhibition, CYP2C8. In kind it is in vitro ADME. The conditions noted are these: read-out: IC50 2C8.
Text: as §1, §2, §3

The target of a further series is T4, CYP2D6 (Homo sapiens, UniProt P10635).
T4 construct: purchased BD Gentest, Becton-Dickinson (Supersomes); host or cells: insect cells
T4 sequence (P10635 whole entry): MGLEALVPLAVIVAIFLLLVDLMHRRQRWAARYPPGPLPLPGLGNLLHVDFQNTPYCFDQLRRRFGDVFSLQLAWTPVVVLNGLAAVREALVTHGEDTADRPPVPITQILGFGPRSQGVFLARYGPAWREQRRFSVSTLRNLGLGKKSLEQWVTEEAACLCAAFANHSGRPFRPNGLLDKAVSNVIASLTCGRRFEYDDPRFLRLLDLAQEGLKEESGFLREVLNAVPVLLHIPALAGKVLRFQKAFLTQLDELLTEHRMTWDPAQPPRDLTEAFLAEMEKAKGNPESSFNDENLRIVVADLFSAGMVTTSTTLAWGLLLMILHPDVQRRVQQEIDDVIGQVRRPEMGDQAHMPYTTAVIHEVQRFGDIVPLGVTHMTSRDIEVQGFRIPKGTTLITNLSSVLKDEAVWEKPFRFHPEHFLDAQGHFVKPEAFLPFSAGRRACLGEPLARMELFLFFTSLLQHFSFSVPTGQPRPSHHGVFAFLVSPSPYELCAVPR
The experiment in a line: Cytochrome P450 inhibition, CYP2D6. In kind it is in vitro ADME. The following applies: read-out: IC50 2D6.
Text: as §1, §2, §3

A further series concerns the target T5, CYP3A4 (Homo sapiens, UniProt P08684).
T5 construct: purchased BD Gentest, Becton-Dickinson (Supersomes); host or cells: insect cells
Nature of the series: Cytochrome P450 inhibition, CYP3A4 (two substrates). In kind it is in vitro ADME.
Text: as §1, §2, §3

The next series concerns the target T6, CYP2C19 (Homo sapiens, UniProt P33261).
T6 construct: purchased BD Gentest, Becton-Dickinson (Supersomes); host or cells: insect cells
The experiment in a line: Cytochrome P450 inhibition, CYP2C19. It counts as in vitro ADME. The conditions noted are these: read-out: IC50 2C19.
Text: as §1, §2, §3

The target of the next series is T7, CYP2C9 (Homo sapiens, UniProt P11712).
T7 construct: purchased BD Gentest, Becton-Dickinson (Supersomes); host or cells: insect cells
T7 sequence (P11712 whole entry): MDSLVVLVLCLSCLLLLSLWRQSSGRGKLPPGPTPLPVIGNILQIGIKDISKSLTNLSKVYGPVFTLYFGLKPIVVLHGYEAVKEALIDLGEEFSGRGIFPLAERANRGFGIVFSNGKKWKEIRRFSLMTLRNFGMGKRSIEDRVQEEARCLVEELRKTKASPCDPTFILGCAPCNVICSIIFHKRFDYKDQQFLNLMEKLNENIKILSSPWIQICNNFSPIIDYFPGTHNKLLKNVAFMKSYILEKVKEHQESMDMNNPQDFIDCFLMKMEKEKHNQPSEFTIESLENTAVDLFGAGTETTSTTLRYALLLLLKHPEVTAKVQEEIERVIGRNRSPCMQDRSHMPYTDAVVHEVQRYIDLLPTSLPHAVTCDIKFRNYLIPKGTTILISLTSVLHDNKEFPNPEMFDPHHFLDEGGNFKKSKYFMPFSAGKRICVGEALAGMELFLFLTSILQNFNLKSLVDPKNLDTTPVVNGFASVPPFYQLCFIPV
Nature of the series: Cytochrome P450 inhibition, CYP2C9. In kind it is in vitro ADME. The following applies: read-out: IC50 2C9.
Text: as §1, §2, §3

Another series concerns the target T8, CYP2A6 (Homo sapiens, UniProt P11509).
T8 construct: purchased BD Gentest, Becton-Dickinson (Supersomes); host or cells: insect cells
T8 sequence (P11509 1-494): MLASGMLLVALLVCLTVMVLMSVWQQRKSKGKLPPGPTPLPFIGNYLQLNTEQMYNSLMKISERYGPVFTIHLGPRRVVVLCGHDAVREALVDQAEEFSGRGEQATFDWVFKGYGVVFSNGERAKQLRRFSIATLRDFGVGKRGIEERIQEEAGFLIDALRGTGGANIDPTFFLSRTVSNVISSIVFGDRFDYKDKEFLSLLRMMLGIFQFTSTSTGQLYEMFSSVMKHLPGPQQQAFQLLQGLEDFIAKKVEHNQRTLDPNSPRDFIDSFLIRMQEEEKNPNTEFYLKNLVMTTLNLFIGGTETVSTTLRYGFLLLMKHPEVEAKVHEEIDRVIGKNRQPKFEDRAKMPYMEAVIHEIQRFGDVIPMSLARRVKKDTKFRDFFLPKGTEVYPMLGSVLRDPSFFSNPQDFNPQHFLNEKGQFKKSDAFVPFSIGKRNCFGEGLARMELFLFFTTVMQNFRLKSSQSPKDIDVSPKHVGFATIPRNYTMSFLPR
The experiment in a line: Cytochrome P450 inhibition, CYP2A6. It counts as in vitro ADME. The conditions noted are these: read-out: IC50 2A6.
Text: as §1, §2, §3

The next series deals with T9, CYP1A2 (Homo sapiens, UniProt P05177).
T9 construct: purchased BD Gentest, Becton-Dickinson (Supersomes); host or cells: insect cells
T9 sequence (P05177 1-516): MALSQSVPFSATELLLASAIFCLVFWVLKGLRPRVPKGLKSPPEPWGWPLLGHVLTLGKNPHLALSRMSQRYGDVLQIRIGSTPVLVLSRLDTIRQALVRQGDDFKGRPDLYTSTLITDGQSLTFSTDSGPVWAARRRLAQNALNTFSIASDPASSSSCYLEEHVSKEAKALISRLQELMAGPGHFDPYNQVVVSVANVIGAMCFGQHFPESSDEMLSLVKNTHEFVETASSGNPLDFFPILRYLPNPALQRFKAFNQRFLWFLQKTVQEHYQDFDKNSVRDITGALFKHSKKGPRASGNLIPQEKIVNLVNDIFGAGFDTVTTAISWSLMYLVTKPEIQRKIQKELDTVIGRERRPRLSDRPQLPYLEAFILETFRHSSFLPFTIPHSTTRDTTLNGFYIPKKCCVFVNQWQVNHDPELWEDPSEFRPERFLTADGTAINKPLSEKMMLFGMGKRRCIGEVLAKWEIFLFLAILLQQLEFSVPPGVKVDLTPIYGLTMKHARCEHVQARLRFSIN
The experiment in a line: Cytochrome P450 inhibition, CYP1A2. The conditions noted are these: read-out: IC50 1A2. It counts as in vitro ADME.
Text: as §1, §2, §3

In series [1] the target is human growth hormone secretagogue receptor (hGHS-R1a) (Homo sapiens, UniProt Q92847). The experiment in a line: Competitive radioligand binding assay (ghrelin receptor), standard method A. The conditions noted are these: binding activity at the human ghrelin receptor, standard method A.
Sequence of human growth hormone secretagogue receptor (hGHS-R1a) (Q92847 whole entry): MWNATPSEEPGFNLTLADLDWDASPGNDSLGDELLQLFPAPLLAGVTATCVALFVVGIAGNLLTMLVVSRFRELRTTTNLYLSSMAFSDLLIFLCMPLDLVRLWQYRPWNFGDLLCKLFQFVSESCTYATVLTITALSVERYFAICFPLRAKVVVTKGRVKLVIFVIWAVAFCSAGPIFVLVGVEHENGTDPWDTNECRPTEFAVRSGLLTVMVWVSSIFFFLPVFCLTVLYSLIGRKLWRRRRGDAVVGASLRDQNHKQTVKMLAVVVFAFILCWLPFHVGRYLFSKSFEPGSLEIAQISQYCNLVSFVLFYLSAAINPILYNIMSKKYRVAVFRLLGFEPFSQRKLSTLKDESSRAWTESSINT

pIC50, pKi: −log10 of the molar value. Like-named read-outs stand apart in the source and are kept apart here.

T5 sequence (P08684 whole entry): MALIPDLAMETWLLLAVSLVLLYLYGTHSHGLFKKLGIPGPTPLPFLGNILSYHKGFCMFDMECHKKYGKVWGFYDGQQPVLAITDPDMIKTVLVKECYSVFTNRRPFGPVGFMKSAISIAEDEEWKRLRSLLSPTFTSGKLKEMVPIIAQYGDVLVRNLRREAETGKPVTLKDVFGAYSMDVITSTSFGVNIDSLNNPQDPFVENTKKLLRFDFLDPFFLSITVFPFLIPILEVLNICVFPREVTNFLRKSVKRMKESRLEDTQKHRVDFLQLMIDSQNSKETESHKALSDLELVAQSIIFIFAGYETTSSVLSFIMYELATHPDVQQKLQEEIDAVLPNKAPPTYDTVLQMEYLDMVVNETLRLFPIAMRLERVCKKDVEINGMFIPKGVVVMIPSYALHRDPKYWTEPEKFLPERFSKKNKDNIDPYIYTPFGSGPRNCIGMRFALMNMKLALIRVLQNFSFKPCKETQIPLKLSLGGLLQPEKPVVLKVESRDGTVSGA
T6 sequence (P33261 whole entry): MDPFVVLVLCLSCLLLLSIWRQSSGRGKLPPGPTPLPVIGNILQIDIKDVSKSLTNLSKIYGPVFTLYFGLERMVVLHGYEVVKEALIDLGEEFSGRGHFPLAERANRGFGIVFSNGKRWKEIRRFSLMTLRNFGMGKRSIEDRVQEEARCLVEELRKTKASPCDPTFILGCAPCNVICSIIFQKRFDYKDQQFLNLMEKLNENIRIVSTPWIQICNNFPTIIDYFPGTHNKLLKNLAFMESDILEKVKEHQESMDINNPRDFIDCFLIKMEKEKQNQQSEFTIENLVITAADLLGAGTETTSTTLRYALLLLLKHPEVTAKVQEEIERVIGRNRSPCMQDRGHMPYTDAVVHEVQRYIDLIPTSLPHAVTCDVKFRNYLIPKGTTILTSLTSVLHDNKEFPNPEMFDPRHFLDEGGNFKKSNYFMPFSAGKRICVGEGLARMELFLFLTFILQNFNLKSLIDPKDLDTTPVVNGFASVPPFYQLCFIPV
T2 sequence (P05181 whole entry): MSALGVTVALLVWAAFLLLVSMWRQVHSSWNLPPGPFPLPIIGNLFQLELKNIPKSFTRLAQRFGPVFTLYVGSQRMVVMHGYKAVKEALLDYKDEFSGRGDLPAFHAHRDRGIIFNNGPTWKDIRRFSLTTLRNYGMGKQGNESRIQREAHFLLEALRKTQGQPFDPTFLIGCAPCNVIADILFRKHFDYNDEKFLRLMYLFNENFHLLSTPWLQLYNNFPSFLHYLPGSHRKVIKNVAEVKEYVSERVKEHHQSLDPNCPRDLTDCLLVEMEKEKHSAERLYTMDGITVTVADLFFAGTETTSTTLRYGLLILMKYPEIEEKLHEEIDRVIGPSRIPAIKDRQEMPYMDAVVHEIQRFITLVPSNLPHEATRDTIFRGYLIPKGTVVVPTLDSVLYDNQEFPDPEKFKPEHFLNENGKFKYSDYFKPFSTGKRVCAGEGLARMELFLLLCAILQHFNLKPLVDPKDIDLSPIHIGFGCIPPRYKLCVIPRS

Turning to `CC(C)C[C@H]1NC(=O)[C@@H](C)N(C)C(=O)[C@H](C2CC2)NCCOc2c(ccc(F)c2F)CCCNC1=O` [Compound 816], the pIC50 (in general, −log10 of the IC50, conventionally taken in molar units) on CYP2B6 was less than 4.00; on CYP2E1, less than 4.00; at CYP2C8, less than 4.00; on CYP2D6 it was less than 4.00; on CYP3A4 (CYP3A4, substrate BFC, read-out: IC50 3A4 (BFC)), 5.23; on CYP3A4 (CYP3A4, substrate BQ, read-out: IC50 3A4 (BQ)), 5.87. The pIC50 at CYP2C19, on CYP2C9, at CYP2A6 and on CYP1A2 was less than 4.00 throughout. The negative logarithm of the Ki (pKi) (as a rule, −log10 of the Ki, conventionally taken in molar units) in [1] was not below 8.00.

For the origin of these results see patent publication US10258602B2 (Ocera Therapeutics, Inc., priority 2007, dated 2019).
